One data set concerns the target T1, Progesterone receptor (Homo sapiens, UniProt P06401).
T1 sequence (P06401 whole entry): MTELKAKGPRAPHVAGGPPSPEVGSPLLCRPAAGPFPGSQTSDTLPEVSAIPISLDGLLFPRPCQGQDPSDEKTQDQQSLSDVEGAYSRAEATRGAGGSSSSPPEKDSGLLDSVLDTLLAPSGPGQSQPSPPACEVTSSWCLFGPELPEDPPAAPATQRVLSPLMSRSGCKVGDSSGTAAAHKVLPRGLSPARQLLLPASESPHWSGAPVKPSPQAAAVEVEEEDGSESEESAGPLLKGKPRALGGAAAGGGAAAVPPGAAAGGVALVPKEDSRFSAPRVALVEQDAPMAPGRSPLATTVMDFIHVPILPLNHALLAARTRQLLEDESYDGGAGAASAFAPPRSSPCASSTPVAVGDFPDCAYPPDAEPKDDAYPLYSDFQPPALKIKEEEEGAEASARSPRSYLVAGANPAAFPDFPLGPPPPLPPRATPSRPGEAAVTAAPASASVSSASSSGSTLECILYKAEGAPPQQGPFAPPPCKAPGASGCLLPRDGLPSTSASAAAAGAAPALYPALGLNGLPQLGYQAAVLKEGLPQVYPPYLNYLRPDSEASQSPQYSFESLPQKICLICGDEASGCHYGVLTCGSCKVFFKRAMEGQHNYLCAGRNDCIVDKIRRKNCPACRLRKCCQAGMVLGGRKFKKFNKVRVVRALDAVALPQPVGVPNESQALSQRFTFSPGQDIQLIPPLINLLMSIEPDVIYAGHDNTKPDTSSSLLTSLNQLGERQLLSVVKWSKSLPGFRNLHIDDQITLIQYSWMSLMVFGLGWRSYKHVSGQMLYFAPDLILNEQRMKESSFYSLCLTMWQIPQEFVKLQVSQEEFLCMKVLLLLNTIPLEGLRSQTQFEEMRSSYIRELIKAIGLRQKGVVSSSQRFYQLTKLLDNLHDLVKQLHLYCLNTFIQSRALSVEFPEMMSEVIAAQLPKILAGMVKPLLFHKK
In words: Displacement of RU486 from human progesterone receptor by fluorescence polarization assay.

A further data set has as its target T2, Glucocorticoid receptor (Homo sapiens, UniProt P04150).
T2 sequence (P04150 whole entry): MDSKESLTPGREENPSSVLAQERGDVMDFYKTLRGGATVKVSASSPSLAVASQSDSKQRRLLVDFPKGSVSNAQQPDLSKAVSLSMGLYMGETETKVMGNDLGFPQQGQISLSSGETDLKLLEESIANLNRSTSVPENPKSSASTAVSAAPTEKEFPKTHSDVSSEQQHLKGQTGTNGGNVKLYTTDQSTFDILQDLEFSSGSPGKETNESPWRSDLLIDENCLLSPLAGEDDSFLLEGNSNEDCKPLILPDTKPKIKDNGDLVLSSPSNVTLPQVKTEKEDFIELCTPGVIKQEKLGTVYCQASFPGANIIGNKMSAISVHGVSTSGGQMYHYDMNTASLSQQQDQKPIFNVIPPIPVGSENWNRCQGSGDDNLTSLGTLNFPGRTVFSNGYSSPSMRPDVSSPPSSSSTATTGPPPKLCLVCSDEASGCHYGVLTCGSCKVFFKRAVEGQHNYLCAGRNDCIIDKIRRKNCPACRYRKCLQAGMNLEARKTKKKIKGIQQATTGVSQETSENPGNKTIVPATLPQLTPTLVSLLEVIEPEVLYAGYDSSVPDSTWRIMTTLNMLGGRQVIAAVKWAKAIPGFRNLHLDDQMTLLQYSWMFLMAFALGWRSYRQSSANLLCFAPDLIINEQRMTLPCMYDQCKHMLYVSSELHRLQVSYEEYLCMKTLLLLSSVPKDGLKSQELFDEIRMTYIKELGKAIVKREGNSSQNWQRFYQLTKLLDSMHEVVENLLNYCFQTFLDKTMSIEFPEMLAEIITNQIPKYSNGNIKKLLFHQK
Briefly: Displacement of Dexamethasone from human glucocorticoid receptor by fluorescence polarization assay.

The next data set has as its target T3, Estrogen receptor (Homo sapiens, UniProt P03372).
T3 sequence (P03372 whole entry): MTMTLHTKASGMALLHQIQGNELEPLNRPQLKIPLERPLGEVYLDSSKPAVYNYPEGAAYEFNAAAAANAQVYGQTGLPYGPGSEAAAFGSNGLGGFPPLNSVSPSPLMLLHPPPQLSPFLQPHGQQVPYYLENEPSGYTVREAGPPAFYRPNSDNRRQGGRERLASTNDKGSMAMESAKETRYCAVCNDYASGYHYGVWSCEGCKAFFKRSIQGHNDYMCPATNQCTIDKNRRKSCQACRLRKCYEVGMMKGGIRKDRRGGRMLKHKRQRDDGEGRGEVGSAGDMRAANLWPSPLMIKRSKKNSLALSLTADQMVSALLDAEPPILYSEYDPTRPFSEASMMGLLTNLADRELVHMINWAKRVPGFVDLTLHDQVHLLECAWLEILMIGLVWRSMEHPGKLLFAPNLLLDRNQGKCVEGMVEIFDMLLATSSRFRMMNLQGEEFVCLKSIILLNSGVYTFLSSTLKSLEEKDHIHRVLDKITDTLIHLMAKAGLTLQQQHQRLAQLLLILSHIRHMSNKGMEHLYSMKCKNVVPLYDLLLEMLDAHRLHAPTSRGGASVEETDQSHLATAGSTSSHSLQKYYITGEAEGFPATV
In words: Displacement of fluormone from human estrogen receptor by fluorescence binding assay.

The target in data set [1] is T4, Mineralocorticoid receptor (Homo sapiens, UniProt P08235).
T4 sequence (P08235 whole entry): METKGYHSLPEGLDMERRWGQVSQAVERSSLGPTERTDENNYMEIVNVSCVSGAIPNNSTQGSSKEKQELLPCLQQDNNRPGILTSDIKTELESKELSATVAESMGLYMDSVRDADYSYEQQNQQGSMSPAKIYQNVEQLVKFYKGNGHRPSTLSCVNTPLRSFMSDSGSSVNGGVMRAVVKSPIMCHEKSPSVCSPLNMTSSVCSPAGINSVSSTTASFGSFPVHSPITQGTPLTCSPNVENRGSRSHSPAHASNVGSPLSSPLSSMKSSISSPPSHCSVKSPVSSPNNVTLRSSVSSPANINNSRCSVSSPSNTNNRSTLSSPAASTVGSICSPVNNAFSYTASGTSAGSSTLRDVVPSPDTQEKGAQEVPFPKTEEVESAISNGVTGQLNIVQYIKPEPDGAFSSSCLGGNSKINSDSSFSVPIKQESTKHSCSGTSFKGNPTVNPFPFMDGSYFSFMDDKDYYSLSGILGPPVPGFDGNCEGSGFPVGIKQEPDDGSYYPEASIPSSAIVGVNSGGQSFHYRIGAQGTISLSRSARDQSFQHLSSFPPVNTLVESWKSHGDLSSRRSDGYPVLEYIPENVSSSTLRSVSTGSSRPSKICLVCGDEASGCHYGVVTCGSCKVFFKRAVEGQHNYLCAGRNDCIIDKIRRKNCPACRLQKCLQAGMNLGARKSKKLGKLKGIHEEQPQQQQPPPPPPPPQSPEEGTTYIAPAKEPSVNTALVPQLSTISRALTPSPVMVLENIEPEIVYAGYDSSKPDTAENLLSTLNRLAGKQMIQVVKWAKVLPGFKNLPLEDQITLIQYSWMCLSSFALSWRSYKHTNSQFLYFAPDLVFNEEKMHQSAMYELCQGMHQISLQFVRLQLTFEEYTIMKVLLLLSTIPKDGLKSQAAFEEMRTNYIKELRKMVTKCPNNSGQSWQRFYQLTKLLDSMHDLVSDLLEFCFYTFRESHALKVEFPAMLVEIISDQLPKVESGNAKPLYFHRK
In words: Displacement of Dexamethasone from human mineralocorticoid receptor by fluorescence polarization assay.

Data set [2] in a line: Metabolic stability in human liver microsomes. It counts as ADME, Microsome.
The subject of data set [3] is Fibroblast. Briefly: Inhibition of IL1-induced IL6 production in foreskin fibroblasts after 24 hrs. Type of data set: functional, cell-based.
Data set [4] has as its system Fibroblast. Briefly: Inhibition of IL1-induced IL6 production in foreskin fibroblasts at 2000 nM after 24 hrs relative to Dexamethasone. Type of data set: functional, Homo sapiens.

Active and inactive are the calls of the source. The calls are words filed in the database; no cut-off is given here.

27 compounds from ChEMBL document CHEMBL1146252, “Discovery and SAR study of novel dihydroquinoline-containing glucocorticoid receptor agonists” (Bioorg Med Chem Lett, 2007) can be followed below.

On to `COc1ccccc1-c1ccc2c(c1)C(C(C)OC/C=C/c1ccccc1)=CC(C)(C)N2` (stereo not drawn), for which the results for the IC50 on Progesterone receptor and at Glucocorticoid receptor were over 2000 nM and 980 nM, respectively.

With `C=CCOC(CC)C1=CC(C)(C)Nc2ccc(-c3ccccc3OC)cc21` (stereo not drawn), the values for the IC50 on Progesterone receptor and on Glucocorticoid receptor were 330 nM and 355 nM, respectively.

With `COc1ccccc1-c1ccc2c(c1)C(C(C)OCCc1ccccc1Cl)=CC(C)(C)N2` (stereo not drawn), the values for the IC50 on Progesterone receptor and on Glucocorticoid receptor were over 2000 nM and 290 nM, respectively.

With `C=CCOC(CCc1ccccc1)C1=CC(C)(C)Nc2ccc(-c3ccccc3OC)cc21` (stereo not drawn), the IC50 on Progesterone receptor was 1000 nM; at Glucocorticoid receptor it was over 2000 nM.

Regarding `COc1ccccc1-c1ccc2c(c1)C(C(C)OCCc1cccc(Cl)c1)=CC(C)(C)N2` (stereo not drawn), the figures for the IC50 at Progesterone receptor and on Glucocorticoid receptor were 1900 nM and 275 nM, respectively.

As for `C=CCOC(C1=CC(C)(C)Nc2ccc(-c3ccccc3OC)cc21)c1ccccc1` (stereo not drawn), the IC50 on Progesterone receptor and on Glucocorticoid receptor was over 2000 nM in each case.

For `C=CCOC(C1=CC(C)(C)Nc2ccc(-c3ccccc3OC)cc21)C(C)C` (stereo not drawn), the IC50 came out at 950 nM on Progesterone receptor and 710 nM on Glucocorticoid receptor.

With `C=CCOC(CC=C)C1=CC(C)(C)Nc2ccc(-c3ccccc3OC)cc21` (stereo not drawn), the IC50 is 440 nM at Progesterone receptor and over 2000 nM at Glucocorticoid receptor.

In the case of `COc1ccc(F)cc1-c1ccc2c(c1)C(C(C)OCCc1ccccc1)=CC(C)(C)N2` (stereo not drawn), the IC50 on Progesterone receptor was 1300 nM; on Glucocorticoid receptor, 195 nM.

Consider `CC/C=C/COC(C)C1=CC(C)(C)Nc2ccc(-c3ccccc3OC)cc21` (stereo not drawn), for which the figures for the IC50 at Progesterone receptor and at Glucocorticoid receptor were 1600 nM and 565 nM, respectively.

As to `C=CCSCC1=CC(C)(C)Nc2ccc(-c3cc(F)ccc3OC)cc21`, the IC50 (at Estrogen receptor; in data set [1]) was over 2000 nM in each case. The half-life in data set [2] was 12 min. Also, the outcome in the data set on Fibroblast [3] (Homo sapiens) was inactive.

In the case of `C=CCOC(C)C1=CC(C)(C)Nc2ccc(-c3cc(F)ccc3OC)cc21.Cl` (single isomer, unassigned; (-)), the half-maximal inhibitory concentration (IC50) at Progesterone receptor was 620 nM; at Glucocorticoid receptor, 110 nM; in data set [1], over 2000 nM; in the data set on Fibroblast [3] (Homo sapiens, Fibroblast, 24 h) it was 260 nM. In addition, the half-life in data set [2] is 5 min. Also, in the data set on Fibroblast [4], the Inhibition turned out to be 46%.

Consider `COc1ccccc1-c1ccc2c(c1)C(C(C)OCCCc1ccccc1)=CC(C)(C)N2` (stereo not drawn), for which the figures for the IC50 at Progesterone receptor and on Glucocorticoid receptor were over 2000 nM and 260 nM, respectively.

For the compound `COc1ccccc1-c1ccc2c(c1)C(C(C)OCCC1CCCCC1)=CC(C)(C)N2` (stereo not drawn), the figures for the IC50 on Progesterone receptor and on Glucocorticoid receptor were over 2000 nM and 400 nM, respectively.

For the compound `COc1ccccc1-c1ccc2c(c1)C(C(C)OCCc1ccc(Cl)cc1)=CC(C)(C)N2` (stereo not drawn), the IC50 on Progesterone receptor turned out to be 930 nM; on Glucocorticoid receptor, 185 nM.

As for `COc1ccccc1-c1ccc2c(c1)C(C(C)OC)=CC(C)(C)N2` (stereo not drawn), the IC50 is 540 nM on Progesterone receptor and 1060 nM on Glucocorticoid receptor.

As to `Br.C=CCOC(C)C1=CC(C)(C)Nc2ccc(-c3cc(F)ccc3OC)cc21` (single isomer, unassigned; (+)), the IC50 at Progesterone receptor is 170 nM; on Glucocorticoid receptor it was 40 nM; on Estrogen receptor it was over 2000 nM; in data set [1], 1100 nM; with Fibroblast [3] (fibroblast), 170 nM. The half-life in data set [2] was 6 min. Testing at 2 µM in the data set on Fibroblast [4] (Homo sapiens, Fibroblast, 24 h) gave an inhibition of 28%.

Take `COc1ccccc1-c1ccc2c(c1)C(C(C)OCCc1ccccc1)=CC(C)(C)N2` (stereo not drawn): the IC50 is over 2000 nM at Progesterone receptor and 404 nM at Glucocorticoid receptor.

Consider `C=CC[S+]([O-])CC1=CC(C)(C)Nc2ccc(-c3ccccc3OC)cc21` (stereo not drawn), for which the IC50 on Progesterone receptor and on Glucocorticoid receptor was over 2000 nM throughout.

On to `C=CCOC(CCC)C1=CC(C)(C)Nc2ccc(-c3ccccc3OC)cc21` (stereo not drawn), for which the half-maximal inhibitory concentration (IC50) on Progesterone receptor and on Glucocorticoid receptor was over 2000 nM in each case.

In turn, `COc1ccc(F)cc1-c1ccc2c(c1)C(CSCCc1ccccc1)=CC(C)(C)N2` displayed an IC50 at Estrogen receptor of over 2000 nM. The same compound had a half-life in data set [2] of 17 min. Besides, the result in the data set on Fibroblast [3] (Homo sapiens) was inactive.

In the case of `C=CCOC(Cc1ccccc1)C1=CC(C)(C)Nc2ccc(-c3ccccc3OC)cc21` (stereo not drawn), the IC50 at Progesterone receptor is 1200 nM; on Glucocorticoid receptor, over 2000 nM.

As for `C/C=C/COC(C)C1=CC(C)(C)Nc2ccc(-c3ccccc3OC)cc21` (stereo not drawn), the IC50 on Progesterone receptor was determined as 1300 nM; at Glucocorticoid receptor it was 210 nM.

With `C=CCSC(C)C1=CC(C)(C)Nc2ccc(-c3ccccc3OC)cc21` (stereo not drawn), the IC50 is 600 nM on Progesterone receptor and 116 nM at Glucocorticoid receptor.

Regarding `C=CCOC(C)C1=CC(C)(C)Nc2ccc(-c3ccccc3OC)cc21` (stereo not drawn), the IC50 on Progesterone receptor is 480 nM; on Glucocorticoid receptor, 116 nM.

`COc1ccccc1-c1ccc2c(c1)C(C(C)OCC=C(C)C)=CC(C)(C)N2` (stereo not drawn): the IC50 worked out at 980 nM on Progesterone receptor and 395 nM on Glucocorticoid receptor.

In the case of `C=CCOC(C)C1=CC(C)(C)Nc2ccc(-c3cc(F)ccc3OC)cc21` (racemic), the IC50 on Progesterone receptor stood at 451 nM; on Glucocorticoid receptor it was 34 nM; in data set [1] it was 970 nM. The same compound showed a half-life in data set [2] of 6 min.
